Laboratory results as given in ChEMBL document CHEMBL3046726, “Cytotoxic and genotoxic potentials of newly synthesized antiviral aminopyrazoloquinoline derivatives” (Med Chem Res, 2008).

Experiments:
MCF-10A [1] = test: Induction of apoptosis in Homo sapiens (human) MCF10A cells at 100 uM after 72 hr by flow cytometry; assay type: cell-based
MCF7 [2] = test: Cell cycle arrest in Homo sapiens (human) MCF7 cells at 10 uM after 72 hr by flow cytometry; assay type: ADME, cell-based; details: mcf7, 72 h
MDA-MB-231 [3] = test: Cell cycle arrest in Homo sapiens (human) MDA-MB-231 cells at 10 uM after 72 hr by flow cytometry; assay type: ADME, cell-based; details: mda-mb-231, 72 h
MCF-12A [4] = test: Cell cycle arrest in Homo sapiens (human) MCF12A cells at 10 uM after 72 hr by flow cytometry; assay type: ADME, cell-based
MDA-MB-231 [5] = test: Induction of apoptosis in Homo sapiens (human) MDA-MB-231 cells at 10 uM after 72 hr by flow cytometry; assay type: cell-based; details: mda-mb-231, 72 h
MCF-12A [6] = test: Induction of apoptosis in Homo sapiens (human) MCF12A cells at 10 uM after 72 hr by flow cytometry; assay type: cell-based
MCF7 [7] = test: Induction of apoptosis in Homo sapiens (human) MCF7 cells at 10 uM after 72 hr by flow cytometry; assay type: cell-based; details: mcf7, 72 h
MDA-MB-231 [8] = test: Cytotoxicity against Homo sapiens (human) MDA-MB-231 cells at 10 uM after 72 hr; assay type: cell-based; details: mda-mb-231, 72 h
MCF-12A [9] = test: Cytotoxicity against Homo sapiens (human) MCF12A cells at 10 uM after 72 hr; assay type: cell-based
MCF7 [10] = test: Cytotoxicity against Homo sapiens (human) MCF7 cells at 10 uM after 72 hr; assay type: cell-based; details: mcf7, 72 h
MDA-MB-231 [11] = test: Cell cycle arrest in Homo sapiens (human) MDA-MB-231 cells assessed as accumulation at G2/M phase at 100 uM after 72 hr by flow cytometry; assay type: ADME, cell-based; details: mda-mb-231, 72 h
MCF7 [12] = test: Cell cycle arrest in Homo sapiens (human) MCF7 cells assessed as accumulation at G2/M phase at 100 uM after 72 hr by flow cytometry; assay type: ADME, cell-based; details: mcf7, 72 h
MCF-12A [13] = test: Cell cycle arrest in Homo sapiens (human) MCF12A cells assessed as accumulation at G2/M phase at 100 uM after 72 hr by flow cytometry; assay type: ADME, cell-based
MCF-10A [14] = test: Cell cycle arrest in Homo sapiens (human) MCF10A cells assessed as accumulation at G2/M phase at 100 uM after 72 hr by flow cytometry; assay type: ADME, cell-based
MDA-MB-231 [15] = test: Induction of apoptosis in Homo sapiens (human) MDA-MB-231 cells at 100 uM after 72 hr by flow cytometry; assay type: cell-based; details: mda-mb-231, 72 h
MCF7 [16] = test: Induction of apoptosis in Homo sapiens (human) MCF7 cells at 100 uM after 72 hr by flow cytometry; assay type: cell-based; details: mcf7, 72 h
MCF-12A [17] = test: Induction of apoptosis in Homo sapiens (human) MCF12A cells at 100 uM after 72 hr by flow cytometry; assay type: cell-based
MDA-MB-231 [18] = test: Cell cycle arrest in Homo sapiens (human) MDA-MB-231 cells assessed as accumulation at G2/M phase at 50 uM after 72 hr by flow cytometry; assay type: ADME, cell-based; details: mda-mb-231, 72 h
MCF7 [19] = test: Cell cycle arrest in Homo sapiens (human) MCF7 cells assessed as accumulation at G2/M phase at 50 uM after 72 hr by flow cytometry; assay type: ADME, cell-based; details: mcf7, 72 h
MCF-12A [20] = test: Cell cycle arrest in Homo sapiens (human) MCF12A cells assessed as accumulation at G2/M phase at 50 uM after 72 hr by flow cytometry; assay type: ADME, cell-based
MCF-10A [21] = test: Cell cycle arrest in Homo sapiens (human) MCF10A cells assessed as accumulation at G2/M phase at 50 uM after 72 hr by flow cytometry; assay type: ADME, cell-based
MDA-MB-231 [22] = test: Induction of apoptosis in Homo sapiens (human) MDA-MB-231 cells at 50 uM after 72 hr by flow cytometry; assay type: cell-based; details: mda-mb-231, 72 h
MCF7 [23] = test: Induction of apoptosis in Homo sapiens (human) MCF7 cells at 50 uM after 72 hr by flow cytometry; assay type: cell-based; details: mcf7, 72 h
MCF-12A [24] = test: Induction of apoptosis in Homo sapiens (human) MCF12A cells at 50 uM after 72 hr by flow cytometry; assay type: cell-based
MCF-10A [25] = test: Induction of apoptosis in Homo sapiens (human) MCF10A cells at 50 uM after 72 hr by flow cytometry; assay type: cell-based
MCF7 [26] = test: Induction of BP-DNA adduct formation in Homo sapiens (human) MCF7 cells at 100 uM after 24 hr by 32P-postlabeling technique relative to control; assay type: cell-based; details: mcf7, 24 h
MDA-MB-231 [27] = test: Genotoxicity in Homo sapiens (human) MDA-MB-231 cells assessed as reduction of BP-DNA adduct formation at 100 uM after 24 hr by 32P-postlabeling technique; assay type: toxicity, cell-based; set-up: scale not given: the % may be the effect or the level left; details: mda-mb-231, 24 h
MCF-12A [28] = test: Genotoxicity in Homo sapiens (human) MCF12A cells assessed as reduction of BP-DNA adduct formation at 100 uM after 24 hr by 32P-postlabeling technique; assay type: toxicity, cell-based; set-up: scale not given: the % may be the effect or the level left
MCF7 [29] = test: Cytotoxicity against Homo sapiens (human) MCF7 cells at 100 uM after 72 hr; assay type: cell-based; details: mcf7, 72 h
MCF-10A [30] = test: Cytotoxicity against Homo sapiens (human) MCF10A cells at 100 uM after 72 hr; assay type: cell-based
MCF-12A [31] = test: Cytotoxicity against Homo sapiens (human) MCF12A cells at 100 uM after 72 hr; assay type: cell-based
MDA-MB-231 [32] = test: Cytotoxicity against Homo sapiens (human) MDA-MB-231 cells at 50 uM after 72 hr; assay type: cell-based; details: mda-mb-231, 72 h
MCF7 [33] = test: Cytotoxicity against Homo sapiens (human) MCF7 cells at 50 uM after 72 hr; assay type: cell-based; details: mcf7, 72 h
MCF-10A [34] = test: Cytotoxicity against Homo sapiens (human) MCF10A cells at 50 uM after 72 hr; assay type: cell-based
MCF-12A [35] = test: Cytotoxicity against Homo sapiens (human) MCF12A cells at 50 uM after 72 hr; assay type: cell-based
MDA-MB-231 [36] = test: Cytotoxicity against Homo sapiens (human) MDA-MB-231 cells at 100 uM after 72 hr; assay type: cell-based; details: mda-mb-231, 72 h

Structure (SMILES) | Activity (MCF-10A [1]) | Activity (MCF7 [2]) | Activity (MDA-MB-231 [3]) | Activity (MCF-12A [4]) | Activity (MDA-MB-231 [5]) | Activity (MCF-12A [6]) | Activity (MCF7 [7]) | Activity (MDA-MB-231 [8]) | Activity (MCF-12A [9]) | Activity (MCF7 [10]) | Activity (MDA-MB-231 [11]) | Activity (MCF7 [12]) | Activity (MCF-12A [13]) | Activity (MCF-10A [14]) | Activity (MDA-MB-231 [15]) | Activity (MCF7 [16]) | Activity (MCF-12A [17]) | Activity (MDA-MB-231 [18]) | Activity (MCF-12A [20]) | Activity (MCF-10A [21]) | other results
Nc1[nH]nc2nc3ccccc3cc12 | Toxic | Non-toxic | Non-toxic | Non-toxic | Non-toxic | Non-toxic | Non-toxic | Non-toxic | Non-toxic | Non-toxic | Non-toxic | Non-toxic | Non-toxic | Non-toxic | Non-toxic | Non-toxic | Toxic |  |  |  | 
Cc1ccc2cc3c(N)[nH]nc3nc2c1 | Toxic | Non-toxic | Non-toxic | Non-toxic | Non-toxic | Non-toxic | Non-toxic | Non-toxic | Non-toxic | Non-toxic | Non-toxic | Non-toxic | Non-toxic | Non-toxic | Non-toxic | Non-toxic | Toxic | Non-toxic | Non-toxic | Non-toxic | Activity (MCF7 [19]): Non-toxic; Activity (MDA-MB-231 [22]): Non-toxic; Activity (MCF7 [23]): Non-toxic; Activity (MCF-12A [24]): Toxic; Activity (MCF-10A [25]): Toxic; fold change (FC) (MCF7 [26]): 3.5
COc1ccc2cc3c(N)n[nH]c3nc2c1 |  | Non-toxic | Non-toxic | Non-toxic | Non-toxic | Non-toxic | Non-toxic | Non-toxic | Non-toxic | Non-toxic |  |  |  |  | 80% | 15% |  | 35% | 20% | 20% | Activity (MCF7 [23]): 10%; Activity (MCF-12A [24]): 30%; Activity (MCF-10A [25]): 5%; fold change (FC) (MCF7 [26]): 2; Activity (MDA-MB-231 [27]): > 60%; Activity (MCF-12A [28]): 40%; Activity (MCF7 [29]): 50%; Activity (MCF-10A [30]): 90%; Activity (MCF-12A [31]): 90%; Activity (MDA-MB-231 [32]): 30%; Activity (MCF7 [33]): 30%; Activity (MCF-10A [34]): 20%; Activity (MCF-12A [35]): 20%
Nc1nc2c(ncn2COCCO)c(=O)[nH]1 [ACYCLOVIR] | Non-toxic | Non-toxic | Non-toxic | Non-toxic | Non-toxic | Non-toxic | Non-toxic | Non-toxic | Non-toxic | Non-toxic | Non-toxic | Non-toxic | Non-toxic | Non-toxic | Non-toxic | Non-toxic | Non-toxic | Non-toxic | Non-toxic | Non-toxic | Activity (MCF7 [19]): Non-toxic; Activity (MDA-MB-231 [22]): Non-toxic; Activity (MCF7 [23]): Non-toxic; Activity (MCF-12A [24]): Non-toxic; Activity (MCF-10A [25]): Non-toxic; Activity (MDA-MB-231 [36]): Non-toxic; Activity (MCF7 [29]): Non-toxic; Activity (MCF-10A [30]): Non-toxic; Activity (MCF-12A [31]): Non-toxic; Activity (MDA-MB-231 [32]): Non-toxic; Activity (MCF7 [33]): Non-toxic; Activity (MCF-10A [34]): Non-toxic; Activity (MCF-12A [35]): Non-toxic
